{"source": "patent US20240131064A1", "about": "“TREATMENT OF CANCER PATIENTS WITH TUMOR INFILTRATING LYMPHOCYTE THERAPIES IN COMBINATION WITH BRAF INHIBITORS AND/OR MEK INHIBITORS” (Iovance Biotherapeutics, Inc., priority 2020, published 2024)", "origin": "cited, not measured here", "key": {"[1]": {"conditions": "percent of patients"}, "[2]": {"tested_on": "BRAF V600E mutation-positive, unresectable or metastatic melanoma", "conditions": "187 patients treated, no prior BRAF or MEK inhibitor"}}, "note": "Where two headings read alike, the source gives them in different places."}
{"compound": "ipilimumab: CTLA-4 inhibitor, heavy chain SEQ ID NO:208, light chain SEQ ID NO:209", "values": [{"measurement": "Treatment-related adverse events leading to discontinuation of therapy", "setting": "[1]", "result": 14.8, "unit": "%"}]}
{"compound": "nivolumab: PD-1 inhibitor, heavy chain SEQ ID NO:158, light chain SEQ ID NO:159", "values": [{"measurement": "rate of durable responses relative to aldesleukin treatment", "setting": "metastatic melanoma; metastatic melanoma", "result": "approximately double"}, {"measurement": "ORR", "setting": "metastatic melanoma; previously treated patients", "result": 32, "unit": "%"}, {"measurement": "Treatment-related adverse events leading to discontinuation of therapy", "setting": "[1]", "result": 7.7, "unit": "%"}]}
{"compound": "des-alanyl-1, serine-125 human IL-2 [aldesleukin]", "values": [{"measurement": "overall objective response rate (ORR)", "setting": "metastatic melanoma; high-dose aldesleukin, metastatic melanoma", "result": 16, "unit": "%"}, {"measurement": "durable complete tumor regressions (CRs)", "setting": "metastatic melanoma; high-dose aldesleukin, treated patients with metastatic melanoma", "result": "up to 6%"}]}
{"compound": "pembrolizumab: PD-1 inhibitor, heavy chain SEQ ID NO:168, light chain SEQ ID NO:169", "values": [{"measurement": "ORR", "setting": "metastatic melanoma; following prior therapy with ipilimumab", "result": 21, "unit": "%"}, {"measurement": "rate of durable responses relative to aldesleukin treatment", "setting": "metastatic melanoma; metastatic melanoma", "result": "approximately double"}]}
{"compound": "CC(C)(C)c1nc(-c2cccc(NS(=O)(=O)c3c(F)cccc3F)c2F)c(-c2ccnc(N)n2)s1", "note": "[dabrafenib]", "values": [{"measurement": "median duration of response (DOR)", "setting": "[2]", "result": 5.6, "unit": "months"}]}
